Consider 22 compounds from patent US20260258036A1, “INHIBITORS OF HUMAN ALDOSTERONE SYNTHASE (CYP11B2)” («TARGET MEDICALS» LIMITED LIABILITY COMPANY, priority 2022, published 2026).

One assay deals with T1, recombinant CYP11B2 (Homo sapiens, UniProt P19099).
T1 sequence (P19099 25-503): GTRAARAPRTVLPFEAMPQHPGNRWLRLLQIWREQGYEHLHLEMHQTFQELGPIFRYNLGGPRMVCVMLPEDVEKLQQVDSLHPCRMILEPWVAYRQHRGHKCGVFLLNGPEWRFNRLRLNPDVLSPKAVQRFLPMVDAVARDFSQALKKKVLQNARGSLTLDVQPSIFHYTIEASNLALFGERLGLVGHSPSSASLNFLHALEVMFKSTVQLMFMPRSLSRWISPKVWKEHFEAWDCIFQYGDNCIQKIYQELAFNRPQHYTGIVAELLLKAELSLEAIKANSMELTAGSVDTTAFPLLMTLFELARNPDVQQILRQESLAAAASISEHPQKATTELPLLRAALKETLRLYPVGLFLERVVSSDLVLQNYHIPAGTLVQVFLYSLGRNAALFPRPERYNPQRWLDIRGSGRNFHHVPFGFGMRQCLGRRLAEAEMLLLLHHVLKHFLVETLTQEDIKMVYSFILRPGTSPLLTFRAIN
Put plainly: Inhibition of CYP11B2 activity in a reconstructed enzyme system (HPLC with UV detector). The class given is biochemical. The note with it: compounds 1_xx; test compound final concentration ≤2 μM; corticosterone substrate; 30 minutes at 37° C.; read-out: Level of CYP11B2 activity inhibition. The protocol:
The authors of the present invention investigated the activity of the compounds according to the invention as inhibitors of CYP11 B2 when analyzed in a reconstructed system containing 0.5 μm recombinant CYP1 1B2, 0.3 μm human adrenodoxin reductase, 2 μm human adrenodoxin, 100 μm corticosterone as a control reaction to detect the formation of a product with using an HPLC system with a UV detector. The test compound is added to the reaction mixture to a final concentration of ≤2 μM. The concentrated protein mixture was diluted with buffer to a final volume of 0.5 ml, pre-incubated for 10 min at 37° C., followed by the addition of the substrate. Reactions are initiated by adding NADPH (nicotinamide adenine dinucleotide phosphate) to a final concentration of 0.25 mM with a regenerating system (glucose-6-phosphate and glucose-6-phosphate dehydrogenase) in 25 mM potassium phosphate buffer, pH 7.4, containing 0.1 mM DTT (dithiothreitol), 0.1% Tween-20.4 mM MgCl2 and incubated at 37° C. After 30 minutes of incubation, the reaction is stopped by adding 5 ml of dichloromethane. The organic phase is isolated by centrifugation, evaporation, dissolution in ethanol and transferred to a vial for HPLC studies. A C18 Luna 100 Å 250×4, 6 mm column was used on an Agilent Technologies 1200 series instrument (USA) with ethanol as the mobile phase.
Activity (a) is calculated as the amount of product in nmol per minute per 1 nmol of CYP.
where k is the correction factor (k=1 is used as the molar extinction coefficients of steroid substrates and products similar at a detection wavelength of 254 nm), As is the peak area of the substrate, cs is the concentration of the substrate, Ap is the peak area of the product, ce is the concentration of CYP (cytochrome P450), t is the reaction time.
The level of inhibition of CYP11 B2 activity is expressed as a percentage, where 0% is defined as no inhibition in reactions without test compound and 100% is absolute inhibition by test compound.
Usually inhibition stands for the relative decrease from the control value, in per cent. With `O=S(=O)(c1cc(F)c(N2CCC3(CCNC3)C2)c(F)c1)n1ccc2c(-c3ccccn3)cncc21` (stereo not shown) [Compound 1_26, 2-(2,6-difluoro-4-((4-(pyridin-2-yl)-1H-pyrrolo[2,3-c]pyridin-1-yl)sulfonyl)phenyl)-2,7-diazaspiro[4.4]nonane], the inhibition at 2 µM lay in the range of 50 to 100%.

With `COc1c(C)cc(S(=O)(=O)n2ccc3c(-c4ncc(C)cn4)cncc32)cc1C` [Compound 1_03, 1-((4-methoxy-3,5-dimethylphenyl)sulfonyl)-4-(5-methylpyrimidin-2-yl)-1H-pyrrolo[2,3-c]pyridine], the inhibition at 2 µM was in the range of 50 to 100%.

Turning to `COc1c(C)cc(S(=O)(=O)n2ccc3c(-c4ccc(C)nn4)cncc32)cc1C` [Compound 1_04, 1-(4-methoxy-3,5-dimethylphenyl)sulfonyl-4-(6-methylpyridazin-3-yl)pyrrolo[2,3-c]pyridine], the inhibition at 2 µM is 50 to 100%.

Take `CN1CCC2CN(c3c(F)cc(S(=O)(=O)n4ccc5c(-c6ccccn6)cncc54)cc3F)CC2C1` (stereo not shown) [Compound 1_25, 1-((3,5-difluoro-4-(5-methyloctahydro-2H-pyrrolo[3,4-c]pyridin-2-yl)phenyl)sulfonyl)-4-(pyridin-2-yl)-1H-pyrrolo[2,3-c]pyridine]: the inhibition at 2 µM lay within 50 to 100%.

Take `O=S(=O)(c1cc(F)c(OCC(F)F)c(F)c1)n1ccc2c(-c3ccccn3)cncc21` [Compound 1_08, 1-((4-(2,2-difluoroethoxy)-3,5-difluorophenyl)sulfonyl)-4-(pyridin-2-yl)-1H-pyrrolo[2,3-c]pyridine]: the inhibition at 2 µM was in the range of 50 to 100%.

Regarding `O=S(=O)(c1cc(F)c(OCC2CC2)c(F)c1)n1ccc2c(-c3ccccn3)cncc21` [Compound 1_07, 1-((4-(cyclopropylmethoxy)-3,5-difluorophenyl)sulfonyl)-4-(pyridin-2-yl)-1H-pyrrolo[2,3-c]pyridine], the inhibition at 2 µM was in the range of 50 to 100%.

Turning to `O=S(=O)(c1cc(F)c(N2CCOCC2)c(F)c1)n1ccc2c(-c3ccccn3)cncc21` [Compound 1_10, 4-(2,6-difluoro-4-((4-(pyridin-2-yl)-1H-pyrrolo[2,3-c]pyridin-1-yl)sulfonyl)phenyl)morpholine], the inhibition at 2 µM is 50 to 100%.

As to `CN1CCN(c2c(F)cc(S(=O)(=O)n3ccc4c(-c5ccc(C#N)nc5)cncc43)cc2F)CC1` [Compound 1_28, 5-(1-((3,5-difluoro-4-(4-methylpiperazin-1-yl)phenyl)sulfonyl)-1H-pyrrolo[2,3-c]pyridin-4-yl)picolinonitrile], the inhibition at 2 µM fell in the range of 50 to 100%.

Turning to `COc1c(F)cc(S(=O)(=O)n2ccc3c(-c4ccccn4)cncc32)cc1F` [Compound 1_18, 1-((3,5-difluoro-4-methoxyphenyl)sulfonyl)-4-(pyridin-2-yl)-1H-pyrrolo[2,3-c]pyridine], the inhibition at 2 µM was 50 to 100%.

In the case of `COc1c(C)cc(S(=O)(=O)n2ccc3c(-c4ccc(S(C)(=O)=O)cn4)cncc32)cc1C` [Compound 1_05, 1-(4-methoxy-3,5-dimethylphenyl)sulfonyl-4-(5-methylsulfonyl-2-pyridyl)pyrrolo[2,3-c]pyridine], the inhibition at 2 µM is 20 to 100%.

Still in this assay, the particulars now being: compounds 2_xx, 3_xx, 4_01; test compound final concentration ≤2 μM; corticosterone substrate; 30 minutes at 37° C.
Take `Cl.O=S(=O)(c1cc(F)c(N2CCNCC2)c(F)c1)n1ccc2c(-c3ccccn3)cncc21` [Compound 3_27, 1-((3,5-difluoro-4-(piperazin-1-yl)phenyl)sulfonyl)-4-(pyridin-2-yl)-1H-pyrrolo[2,3-c]pyridine]: the “Level of CYP11B2 activity inhibition” value is “++ (inhibition of CYP11B2 activity in the range of 20-100% (++))”.

The assay is the same for the next values; noted with them: compounds 2_xx, 3_xx, 4_01; test compound final concentration ≤2 μM; corticosterone substrate; 30 minutes at 37° C.; read-out: Level of CYP11B2 activity inhibition.
As for `CN1CCN(c2c(F)cc(S(=O)(=O)n3ccc4c(-c5cnc(C#N)cn5)cncc43)cc2F)CC1` [Compound 3_05, 5-(1-((3,5-difluoro-4-(4-methylpiperazin-1-yl)phenyl)sulfonyl)-1H-pyrrolo[2,3-c]pyridin-4-yl)pyrazine-2-carbonitrile], the inhibition at 2 µM is 35 to 100%.

For `O=S(=O)(c1cc(F)c(N2CC3(CNC3)C2)c(F)c1)n1ccc2c(-c3ccccn3)cncc21` [Compound 3_21, 1-((3,5-difluoro-4-(2,6-diazaspiro[3.3]heptan-2-yl)phenyl)sulfonyl)-4-(pyridin-2-yl)-1H-pyrrolo[2,3-c]pyridine], the inhibition at 2 µM fell in the range of 20 to 100%.

As for `CNc1cnc(-c2cncc3c2ccn3S(=O)(=O)c2cc(F)c(N3CCN(C)CC3)c(F)c2)nc1` [Compound 3_08, 2-(1-((3,5-difluoro-4-(4-methylpiperazin-1-yl)phenyl)sulfonyl)-1H-pyrrolo[2,3-c]pyridin-4-yl)-N-methylpyrimidin-5-amine], the inhibition at 2 µM is 20 to 100%.

With `O=S(=O)(c1cc(F)c(N2CCN(CC3CC3)CC2)c(F)c1)n1ccc2c(-c3ccccn3)cncc21` [Compound 2_02, 1-((4-(4-(cyclopropylmethyl)piperazin-1-yl)-3,5-difluorophenyl)sulfonyl)-4-(pyridin-2-yl)-1H-pyrrolo[2,3-c]pyridine], the inhibition at 2 µM is 35 to 100%.

For `O=S(=O)(c1cc(F)c(N2C3CCC2CNC3)c(F)c1)n1ccc2c(-c3ccccn3)cncc21` [Compound 3_26, 1-((4-(3,8-diazabicyclo[3.2.1]octan-8-yl)-3,5-difluorophenyl)sulfonyl)-4-(pyridin-2-yl)-1H-pyrrolo[2,3-c]pyridine], the inhibition at 2 µM lay within 35 to 100%.

For the compound `CNc1ccc(-c2cncc3c2ccn3S(=O)(=O)c2cc(F)c(N3CCN(C)CC3)c(F)c2)cn1` [Compound 3_03, 5-(1-((3,5-difluoro-4-(4-methylpiperazin-1-yl)phenyl)sulfonyl)-1H-pyrrolo[2,3-c]pyridin-4-yl)-N-methylpyridin-2-amine], the inhibition at 2 µM was 20 to 100%.

As for `O=S(=O)(c1cc(F)c(N2CC3CC2CN3)c(F)c1)n1ccc2c(-c3ccccn3)cncc21` (stereo not shown) [Compound 3_25, 1-((4-(2,5-diazabicyclo[2.2.1]heptan-2-yl)-3,5-difluorophenyl)sulfonyl)-4-(pyridin-2-yl)-1H-pyrrolo[2,3-c]pyridine], the inhibition at 2 µM is 35 to 100%.

Regarding `CN1CC2CC(C1)N2c1c(F)cc(S(=O)(=O)n2ccc3c(-c4ccccn4)cncc32)cc1F` [Compound 3_18, 6-(2,6-difluoro-4-((4-(pyridin-2-yl)-1H-pyrrolo[2,3-c]pyridin-1-yl)sulfonyl)phenyl)-3-methyl-3,6-diazabicyclo[3.1.1]heptane], the inhibition at 2 µM lay in the range of 35 to 100%.

With `CN1CC2(C1)CN(c1c(F)cc(S(=O)(=O)n3ccc4c(-c5ccccn5)cncc43)cc1F)C2` [Compound 3_16, 1-((3,5-difluoro-4-(6-methyl-2,6-diazaspiro[3.3]heptan-2-yl)phenyl)sulfonyl)-4-(pyridin-2-yl)-1H-pyrrolo[2,3-c]pyridine], the inhibition at 2 µM is 35 to 100%.

`CNc1cnc(-c2cncc3c2ccn3S(=O)(=O)c2cc(F)c(N3CC4CN(C)CC4C3)c(F)c2)cn1` (stereo not shown) [Compound 3_22, 5-(1-((3,5-difluoro-4-(5-methylhexahydropyrrolo[3,4-c]pyrrol-2(1H)-yl)phenyl)sulfonyl)-1H-pyrrolo[2,3-c]pyridin-4-yl)-N-methylpyrazin-2-amine]: the inhibition at 2 µM was 35 to 100%.

On to `CN1CCN(c2c(F)cc(S(=O)(=O)n3ccc4c(-c5ccccn5)cncc43)cc2F)CC1=O` [Compound 2_01, 4-(2,6-difluoro-4-((4-(pyridin-2-yl)-1H-pyrrolo[2,3-c]pyridin-1-yl)sulfonyl)phenyl)-1-methylpiperazin-2-one], for which the inhibition at 2 µM was in the range of 35 to 100%.
